The record followed here is patent publication US11306084B2, “Integrin antagonists” (Saint Louis University, priority 2016, dated 2022).

In experiment [1] the target is T1, Recombinant human integrin ανβ5 (Homo sapiens, UniProt P06756+P18084).
T1 construct: purchased R&D Systems 2528-AV
The experiment can be described thus: Solid Phase Receptor Assay (SPRA) for ανβ5 function. It is filed as binding. Conditions: plate-bound human vitronectin; read-out: αvβ5 SPRA IC50.

For experiment [2], the target named is T2, Recombinant human integrin ανβ8 (Homo sapiens, UniProt P06756+P26012).
T2 construct: purchased R&D Systems 4135-AV
The experiment can be described thus: Solid Phase Receptor Assay (SPRA) for ανβ8 function. Format: binding. Conditions: plate-bound human LAP; read-out: αvβ8 SPRA IC50.

Structures can show the parent of a compound that is named as a salt.

T2 sequence (P06756 31-992 limits assumed): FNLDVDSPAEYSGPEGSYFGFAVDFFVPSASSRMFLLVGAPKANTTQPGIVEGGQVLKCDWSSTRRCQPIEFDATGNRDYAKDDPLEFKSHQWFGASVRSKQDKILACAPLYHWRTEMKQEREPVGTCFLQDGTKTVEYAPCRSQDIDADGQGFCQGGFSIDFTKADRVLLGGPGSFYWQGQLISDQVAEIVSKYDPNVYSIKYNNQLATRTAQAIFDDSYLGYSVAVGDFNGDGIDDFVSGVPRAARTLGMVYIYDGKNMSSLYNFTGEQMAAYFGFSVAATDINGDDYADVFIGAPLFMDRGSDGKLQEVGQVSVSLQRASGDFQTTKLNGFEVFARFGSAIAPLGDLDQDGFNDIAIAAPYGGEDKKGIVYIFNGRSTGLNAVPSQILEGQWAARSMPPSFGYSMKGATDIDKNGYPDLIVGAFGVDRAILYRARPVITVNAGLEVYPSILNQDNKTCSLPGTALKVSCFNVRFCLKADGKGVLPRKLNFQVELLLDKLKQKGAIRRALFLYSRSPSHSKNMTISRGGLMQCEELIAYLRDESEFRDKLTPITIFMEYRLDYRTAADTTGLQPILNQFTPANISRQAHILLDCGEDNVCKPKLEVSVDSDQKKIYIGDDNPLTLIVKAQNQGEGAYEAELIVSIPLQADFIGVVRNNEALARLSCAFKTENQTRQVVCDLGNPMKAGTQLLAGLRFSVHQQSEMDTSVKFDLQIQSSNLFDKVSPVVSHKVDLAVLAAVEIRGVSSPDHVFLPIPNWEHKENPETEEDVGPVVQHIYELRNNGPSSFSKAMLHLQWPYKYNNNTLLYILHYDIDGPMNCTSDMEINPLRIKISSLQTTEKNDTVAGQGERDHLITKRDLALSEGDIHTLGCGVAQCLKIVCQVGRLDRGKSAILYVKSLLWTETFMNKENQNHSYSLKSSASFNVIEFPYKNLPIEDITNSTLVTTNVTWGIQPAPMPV
T2 sequence (P26012 43-684 limits assumed): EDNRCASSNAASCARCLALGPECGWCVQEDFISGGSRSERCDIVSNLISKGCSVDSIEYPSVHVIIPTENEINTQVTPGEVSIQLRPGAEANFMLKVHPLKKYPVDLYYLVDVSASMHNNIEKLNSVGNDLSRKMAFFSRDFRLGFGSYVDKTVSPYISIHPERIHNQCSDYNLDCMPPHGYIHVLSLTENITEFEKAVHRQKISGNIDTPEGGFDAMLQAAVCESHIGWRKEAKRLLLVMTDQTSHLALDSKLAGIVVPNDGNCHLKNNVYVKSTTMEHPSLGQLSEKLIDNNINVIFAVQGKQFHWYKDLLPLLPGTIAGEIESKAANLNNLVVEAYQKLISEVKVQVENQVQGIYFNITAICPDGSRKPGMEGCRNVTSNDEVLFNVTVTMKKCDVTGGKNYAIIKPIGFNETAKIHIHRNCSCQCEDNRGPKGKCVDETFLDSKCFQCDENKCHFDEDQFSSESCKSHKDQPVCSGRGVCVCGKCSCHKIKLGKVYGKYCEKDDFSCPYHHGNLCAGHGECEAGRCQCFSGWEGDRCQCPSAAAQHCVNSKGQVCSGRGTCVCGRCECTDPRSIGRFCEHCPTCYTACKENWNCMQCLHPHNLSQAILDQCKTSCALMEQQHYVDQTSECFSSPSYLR
T1 sequence (P06756 31-992 limits assumed): as the sequence (P06756 31-992 limits assumed) above
T1 sequence (P18084 24-719 limits assumed): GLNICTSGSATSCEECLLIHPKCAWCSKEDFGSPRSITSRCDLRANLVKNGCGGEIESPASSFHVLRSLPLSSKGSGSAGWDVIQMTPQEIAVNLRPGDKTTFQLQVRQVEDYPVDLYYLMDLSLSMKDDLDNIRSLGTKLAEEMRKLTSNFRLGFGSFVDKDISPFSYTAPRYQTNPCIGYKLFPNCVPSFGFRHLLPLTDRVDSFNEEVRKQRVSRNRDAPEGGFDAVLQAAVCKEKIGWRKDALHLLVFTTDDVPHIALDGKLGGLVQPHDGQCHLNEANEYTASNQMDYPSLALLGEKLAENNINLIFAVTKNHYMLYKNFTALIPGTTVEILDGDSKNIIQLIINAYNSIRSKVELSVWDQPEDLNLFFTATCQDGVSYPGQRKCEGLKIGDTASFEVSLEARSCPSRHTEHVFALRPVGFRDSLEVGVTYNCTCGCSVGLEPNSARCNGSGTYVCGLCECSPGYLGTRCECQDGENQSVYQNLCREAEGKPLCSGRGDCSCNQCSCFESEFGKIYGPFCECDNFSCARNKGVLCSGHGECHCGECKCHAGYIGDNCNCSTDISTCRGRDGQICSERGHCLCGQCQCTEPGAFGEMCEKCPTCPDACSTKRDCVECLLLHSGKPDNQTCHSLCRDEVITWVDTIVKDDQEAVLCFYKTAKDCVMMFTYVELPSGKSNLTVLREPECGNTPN

What is called IC50 is the concentration that gives 50% inhibition. On to `Cc1ccc(C(C)(C)C)cc1C(CC(=O)O)Cc1cc(OCCc2ccc3c(n2)NCCC3)n(C)n1` (stereo not shown) [Example 44, 3-(5-tert-butyl-2-methyl-phenyl)-4-[1-methyl-5-[2-(5,6,7,8-tetrahydro-1,8-naphthyridin-2-yl)ethoxy]pyrazol-3-yl]butanoic Acid Trifluoroacetate], for which the figures for the 50% inhibitory concentration (IC50) in experiment [1] and in experiment [2] were 76 nM and 360 nM, respectively.

Turning to `COc1ccc(C#N)cc1C(CC(=O)O)Cc1cc(OCCc2ccc3c(n2)NCCC3)n(C)n1` (stereo not shown) [Example 46, 3-(5-cyano-2-methoxyphenyl)-4-(1-methyl-5-(2-(5,6,7,8-tetrahydro-1,8-naphthyridin-2-yl)ethoxy)-1H-pyrazol-3-yl)butanoic Acid Trifluoroacetate], the IC50 in experiment [1] was 1 nM; in experiment [2], 31 nM.

For the compound `COc1ccc(C(N)=O)cc1C(CC(=O)O)Cc1cc(OCCc2ccc3c(n2)NCCC3)n(C)n1` (stereo not shown) [Example 47, 3-(5-carbamoyl-2-methoxyphenyl)-4-(1-methyl-5-(2-(5,6,7,8-tetrahydro-1,8-naphthyridin-2-yl)ethoxy)-1H-pyrazol-3-yl)butanoic Acid trifluoroacetate], the half-inhibitory concentration (IC50) was found to be 0.3 nM in experiment [1] and 3.6 nM in experiment [2].

Turning to `COc1ccc(C(=O)O)cc1C(CC(=O)O)Cc1cc(OCCc2ccc3c(n2)NCCC3)n(C)n1` (stereo not shown) [Example 48, 3-(1-carboxy-3-(1-methyl-5-(2-(5,6,7,8-tetrahydro-1,8-naphthyridin-2-yl)ethoxy)-1H-pyrazol-3-yl)propan-2-yl)-4-methoxybenzoic Acid Trifluoroacetate], the values for the half-maximal inhibitory concentration (IC50) in experiment [1] and in experiment [2] were 0.7 nM and 92 nM, respectively.

Turning to `Cn1nc(CC(CC(=O)O)c2cccc(C(C)(C)C)c2)cc1OCCc1ccc2c(n1)NCCC2` (stereo not shown) [Example 49, 3-(3-tert-butylphenyl)-4-[1-methyl-5-[2-(5,6,7,8-tetrahydro-1,8-naphthyridin-2-yl)ethoxy]pyrazol-3-yl]butanoic Acid Trifluoroacetate], the 50% inhibitory concentration (IC50) in experiment [1] worked out at 0.4 nM; in experiment [2] it was 73 nM.
